Data reported in ChEMBL document CHEMBL1649061, “Synthesis and pharmacological evaluation of N-(3-(1H-indol-4-yl)-5-(2-methoxyisonicotinoyl)phenyl)methanesulfonamide (LP-261), a potent antimitotic agent” (J Med Chem, 2011).
Activity calls are given as the source filed them. The calls are words filed in the database; no cut-off is given here.

Key:
[1] = Oral bioavailability in Sprague-Dawley rat at 20 mg/kg; type: ADME, organism-based; conditions: in vivo
[2] = tested on: HeLa; assay: Cytotoxicity against human HeLa cells after 48 to 72 hrs by […] assay; type: functional, cell-based
[3] = Cytotoxicity against human NCI-ADR-RES expressing MDR1 cells after 48 to 72 hrs by […] assay; type: functional, cell-based
[4] = tested on: MCF7; assay: Cell cycle arrest in human MCF7 cells assessed as accumulation at G2/M phase after 24 hrs using propidium iodide staining by FACS analysis; type: functional, cell-based; conditions: MCF7, 24 h
[5] = tested on: U-266; assay: Cell cycle arrest in human U266 cells assessed as accumulation at G2/M phase after 24 hrs using propidium iodide staining by FACS analysis; type: functional, cell-based; conditions: U-266, 24 h
[6] = tested on: NCI-H23; assay: Cell cycle arrest in human NCI-H23 cells assessed as accumulation at G2/M phase after 24 hrs using propidium iodide staining by FACS analysis; type: functional, cell-based; conditions: NCI-H23, 24 h
[7] = tested on: BXPC-3; assay: Cell cycle arrest in human BxPC3 cells assessed as accumulation at G2/M phase after 24 hrs using propidium iodide staining by FACS analysis; type: functional, cell-based; conditions: BXPC-3, 24 h
[8] = tested on: PC-3; assay: Cell cycle arrest in human PC3 cells assessed as accumulation at G2/M phase after 24 hrs using propidium iodide staining by FACS analysis; type: functional, cell-based; conditions: PC-3, 24 h
[9] = tested on: SW-620; assay: Cytotoxicity against human SW620 cells after 48 to 72 hrs by […] assay; type: functional, cell-based
[10] = tested on: A2780; assay: Cytotoxicity against human A2780 cells after 48 to 72 hrs by […] assay; type: functional, cell-based
[11] = Inhibition of tubulin polymerization after 60 mins
[12] = tested on: Jurkat; assay: Cell cycle arrest in human Jurkat cells assessed as accumulation at G2/M phase after 24 hrs using propidium iodide staining by FACS analysis
[13] = tested on: NCI-H522; assay: Cell cycle arrest in human NCI-H522 cells assessed as accumulation at G2/M phase after 24 hrs using propidium iodide staining by FACS analysis; type: functional, cell-based; conditions: NCI-H522, 24 h
[14] = tested on: SW-620; assay: Cell cycle arrest in human SW620 cells assessed as accumulation at G2/M phase after 24 hrs using propidium iodide staining by FACS analysis; type: functional, cell-based; conditions: SW-620, 24 h
[15] = Displacement of [3H]colchicine from tubulin at 30 uM

SMILES: Oc1cc(Nc2cccnc2)cc(-c2cccc3[nH]ccc23)c1
- bioavailability [1]: 24%

SMILES: COC(=O)Nc1cc(C(=O)c2ccnc(N3CCOCC3)c2)cc(-c2cccc3[nH]ccc23)c1
- IC50 [2]: 280 nM
- IC50 [3]: 300 nM
- IC50 [4]: 30 nM
- IC50 [5]: 120 nM
- IC50 [6]: 30 nM
- IC50 [7]: 10 nM
- IC50 [8]: 20 nM
- IC50 [9]: 250 nM
- IC50 [10]: 220 nM
- EC50 [11]: 4600 nM

SMILES: CC(=O)Nc1cc(C(=O)c2cc(C)nc(N3CCOCC3)c2)cc(-c2cccc3[nH]ccc23)c1
- IC50 [2]: 490 nM
- IC50 [3]: 1100 nM
- IC50 [4]: 10 nM
- IC50 [5]: 20 nM
- IC50 [6]: 40 nM
- IC50 [7]: 70 nM
- IC50 [8]: 50 nM
- IC50 [9]: 450 nM
- IC50 [10]: 350 nM

SMILES: COc1ccc(S(=O)(=O)Nc2cccnc2Nc2ccc(O)cc2)cc1 [ABT-751]
- IC50 [2]: 270 nM
- IC50 [3]: 290 nM
- IC50 [12]: 160 nM
- IC50 [9]: 190 nM
- IC50 [10]: 170 nM

SMILES: COc1cc2c(c(OC)c1OC)-c1ccc(OC)c(=O)cc1[C@@H](NC(C)=O)CC2 [COLCHICINE]
- IC50 [12]: 17 nM
- IC50 [5]: 10 nM
- IC50 [13]: 14 nM
- IC50 [14]: 14 nM
- IC50 [6]: 13 nM
- IC50 [7]: 16 nM
- IC50 [8]: 33 nM
- EC50 [11]: 2000 nM
- inhibition [15]: 79%

SMILES: CC(=O)O[C@H]1C(=O)[C@@]2(C)[C@H]([C@H](OC(=O)c3ccccc3)[C@]3(O)C[C@H](OC(=O)[C@H](O)[C@@H](NC(=O)c4ccccc4)c4ccccc4)C(C)=C1C3(C)C)[C@]1(OC(C)=O)CO[C@@H]1C[C@@H]2O [PACLITAXEL]
- IC50 [2]: 20 nM
- IC50 [3]: 13000 nM
- IC50 [9]: 30 nM
- IC50 [10]: 10 nM

SMILES: CC[C@]1(O)C[C@H]2CN(CCc3c([nH]c4ccccc34)[C@@](C(=O)OC)(c3cc4c(cc3OC)N(C=O)[C@H]3[C@@](O)(C(=O)OC)[C@H](OC(C)=O)[C@]5(CC)C=CCN6CC[C@]43[C@@H]65)C2)C1 [VINCRISTINE]
- EC50 [11]: 2500 nM
- inhibition [15]: inactive
